# Laboratory results: US6514942B1, “Methods and compositions for stimulating T-lymphocytes” (The Board of Regents, The University of Texas System, priority 1995, dated 2003)
# “Also recorded” adds a separate entry of the source.
# Experiments:
# HLA-A2 of T2 cells = biological target: T1, HLA-A2 of T2 cells (Homo sapiens, UniProt P04439, D140Y/D185E/D98H/E176V/E277Q/G131W/G231S/I119V/I121R/I166T/I218V/L300P/L318F/N151K/N90K/P208A/P217A/Q86G/Q94H/R138H/R169H/T345S); experiment: Reactivity of MA2.1 mAb with T2 cells after culture with peptide (immunofluorescence, FL1); assay type: cell-based; conditions: peptide 50 μg/ml, overnight culture in IMDM-FCS
# T1 construct: cell surface expression of HLA-A2 is lower (30-40%) than in normal LBL lines transfected with HLA-A2; endogenous in cells; host or cells: T2 (transport deletion mutant) human lymphoblastoid cells, obtained from Dr. Peter Creswell
# Procedure: FIG. 5A. Effects of HER-2 peptides on reactivity of MA2.1 mAb with T2 cells. Fluorescence analysis and determination of FL1 were performed as described (Stauss et al., 1992). Peptides were added to T2 cells at 50 μg/ml (final concentration). After overnight culture, in IMDM-FCS, cells were washed and the levels of HLA-A2 expression were determined using HLA-A2 specific mAb.
# mAbs to CD3 (OKT3-FITC), CD4 (OKT4-FITC) and CD8 (OKT8-FITC) were obtained from Ortho Diagnostic (Ortho, Raritan, N.J.), mAb W6/32 (anti-HLA, -A, -B, -C) from Dako (Dako-Dakopatts, Denmark); HLA-A2 reacting mAb BB7.2 and MA2.1 from ATCC. Immunofluorescence studies were performed as described in Example 1.
# To determine whether these peptides and longer analogs affect HLA-A2 conformation as an indication of HLA-A2 binding, the effects of HER-2 peptides on the reactivity of conformationally dependent mAb MA2.1 and BB.7.2 were examined with HLA-A2 of T2 cells. The human cell line T2 has a defect affecting endogenous peptide loading of MHC class I molecules. As a consequence, cell surface expression of HLA-A2 is lower (30-40%) than in normal LBL lines transfected with HLA-A2 (e.g., C1R) but the reactivity of MA2.1 and BB.7.2 mAb is increased when certain HLA-A2 binding peptides are added to the culture medium (Anderson et al., 1993). Although most human MHC class I molecules cannot be induced at the low temperatures used for their murine counterparts because of fundamental structural differences between human and mouse class I (Anderson et al., 1993), the fact that they express few endogenous (mainly signal) peptides (Zweerink et al., 1993) increases the sensitivity of detection of peptide-HLA-A2 interaction.
# C1R:A2 cells = experiment: Lysis of peptide-sensitized C1R:A2 cells by CTL cultures induced in vitro with C43 and C84; assay type: cell-based, human; conditions: E:T 10:1, donor 51
# [1] = test system: HLA-A2- CTL from donors 14 and 15; experiment: Presentation of peptides by HLA-A2+ transfectants to HLA-A2- CTL; assay type: cell-based, human; conditions: CTL induced with the same peptides
# [2] = test system: OVA-16 (HLA-A2+, HER-2high) ovarian tumor; experiment: Cold target inhibition of OVA-16 lysis by 41.CD8+ CTL with peptide-pulsed C1R:A2 cells; assay type: cell-based, human; conditions: cold:hot 2:1, E:T 10:1, 4- and 20-h assays
# Procedure: (§1) FIG. 4A. Target specificity of the 41.CD8^+ CTL were tested for the ability to lyse 5^1Cr-labeled OVA-16 at an E:T ratio of 10:1. C1R:A2 cells (A2.1) were incubated with synthetic peptides (D125, C43, C85), washed, and used in cold target inhibition studies at a cold:hot ratio of 2:1. Cytotoxicity studies were performed for 5 hr. Results represent the mean of three determinations. The variability between samples was less than 10%. The differences between determination are statistically significant (P<0.03) as determined by Student's t test. Percentage inhibition is indicated in parentheses.
# as §1, with “FIG. 4B.” for “FIG. 4A.”, “lyse ^51Cr-labeled” for “lyse 5^1Cr-labeled”, “for 20” for “for 5”
# Tumor cells and fibroblasts were labeled with 200 μCi of ^51Cr (Na^51CrO4; Amersham, Arlington Heights, Ill.) for 90 min at 37° C. (Ioannides et al., 1991). Lymphoblastoid cells and HLA-A2 transfectants were labeled overnight in RPMI-FCS, then washed three times and incubated with effector cells in RPMI-FCS in an incubator with 5%. CO2 (Bednarek et al., 1991; Gammon et al., 1992). When peptide recognition was determined, targets were incubated with 25 μM of peptides overnight during ^51Cr labeling or with 10 μM peptide for 2 h at 37° C. in RPMI-FCS then washed three times before being incubated with effector cells. Separate controls for spontaneous and total lysis were made for each peptide-pulsed target (Ioannides et al., 1991; Bednarek et al., 1991; Gammon et al., 1992). After 4-5 h, 100 μl of supernatant was collected and counted. To determine maximum lysis in 20-h assays, plates were left undisturbed in the incubator and the supernatant was collected after overnight incubation. For cold target inhibition studies, C1R:A2 cells were preincubated with HER-2 or control peptides overnight, then washed and admixed with ^51Cr-labeled targets at 2:1 and 6:1 (cold:hot targets) ratios. Percentage lysis was calculated from the formula: 100×[(E−S)/(T−S)], where E is experimental release, S is release in the absence of CTL, and T is release in 2 M HCl.
# To confirm that the 41.CD8^+ CTL line recognizes epitopes on HER-2^high tumors contained on peptides used for stimulation, cold target inhibition studies were performed. […]
# C1R:A2 and T2 cells = experiment: Lysis by LAK cells in presence of peptides; assay type: cell-based, human
# Text: It is unlikely that tumor killing by 41.CD8^+ CTL reflects LAK type activity. LAK cells lyse K562 with higher efficiency than they lyse human tumors (Grimm et al., 1982). Also, both C1R:A2 and SkOV3.A2 were transfected with the same HLA-A2 plasmid expression vector. […] In separate studies, LAK cells lysed effectively both C1R:A2 and T2 cells. This lysis was not affected by C43/C84 or mutated peptides based on this sequence.
Sequence,FL1 of T2 cells stained with MA2.1 mAb (HLA-A2 of T2 cells),difference between HER-2 peptide and control targets recognition (C1R:A2 cells; 4-hr assay),difference between HER-2 peptide and control targets recognition (C1R:A2 cells; 20-hr assay),cross-presentation to HLA-A2- CTL [1],inhibition of tumor lysis by peptide-pulsed cold targets [2],effect on lysis by LAK cells (C1R:A2 and T2 cells)
"ELVSEFSRV [Peptide C84, HER-2:971-979 analog, Met(P9) substituted by Val]",significant increase in FL1,not significant,significant,did not cross-present,inhibit HER-2^high tumor lysis; also recorded: specifically inhibit tumor lysis,not affected
"RFRELVSEFSRMAR [Peptide C43, HER-2:968-981 14mer peptide]",failed to significantly increase FL1,not significant,significant,did not cross-present,inhibited the lysis of the OVA-16 tumor; also recorded: inhibit HER-2^high tumor lysis,not affected
